Among the data in patent US6984649B1, “Pyridine derivatives” (Bayer Aktiengesellschaft, priority 2000, dated 2006) are IC50 values, retold here.

Counter-ions that a name gives are not always drawn. Bounds are passed on as bounds.

For one assay, the system named is A549 human lung epithelium cell line. Nature of the assay: RANTES production in response to TNF-α from A549 cells. It is filed as cell-based. As to conditions: A549 cells, 100 ng/ml TNF-α, read-out: Cellular activity grade (A549) (Cellular IC50). In a few lines: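 RANTES released into supernatant was measured by DELFIA-type sandwich immunoassay, Eu-labelled detection antibody, 340 nm excitation/615 nm emission, recombinant RANTES standard. Beforehand, cells seeded at 4×10^4/well received test compound (1% DMSO) for 1 h at 37 °C, followed by 24 h TNF-α (100 ng/ml) stimulation.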
With `N#Cc1c(C2CCCNC2)cc(-c2c(O)cccc2OCC2CCCO2)nc1N` (stereo not shown) [Example 2-81], the IC50 was under 1 µM.

Still in this assay, the particulars now being: Homo sapiens, A549, A549 cells, 100 ng/ml TNF-α, read-out: Cellular activity grade (A549) (Cellular IC50).
On to `CCCCCCOc1cccc(O)c1-c1cc(C2CCNCC2)c(C#N)c(N)n1` [Example 2-76], for which the IC50 is under 1 µM. The same measure, in the same setting: in the case of `CC(C)(C)C(=O)COc1cccc(O)c1-c1cc(C2CCCNC2)c(C#N)c(N)n1` (stereo not shown) [Example 2-77] it was under 1 µM. Take `CC(C)(C)C(=O)COc1cccc(O)c1-c1cc(C2CCNCC2)c(C#N)c(N)n1` [Example 2-78]: the IC50 is under 1 µM. For `N#Cc1c(C2CCCNC2)cc(-c2c(O)cccc2OCC2CCCCO2)nc1N` (stereo not shown) [Example 2-79], the 50% inhibitory concentration (IC50) was under 1 µM. `N#Cc1c(C2CCCNC2)cc(-c2c(O)cccc2OCC2CCCO2)nc1N` (stereo not shown) [Example 2-80]: the IC50 is under 1 µM. On to `N#Cc1c(C2CCNCC2)cc(-c2c(O)cccc2OCC2CCCO2)nc1N` (stereo not shown) [Example 2-82], for which the IC50 is under 1 µM.

As to `N#Cc1c(C2CCCNC2)cc(-c2c(O)cccc2OCCN2CCCCC2)nc1N` (stereo not shown) [Example 2-83], the IC50 was in the range of 1 to 10 µM.

Consider `N#Cc1c(C2CCCNC2)cc(-c2c(O)cccc2OCCN2CCOCC2)nc1N` (stereo not shown) [Example 2-84], for which the IC50 was 1 to 10 µM.

With `CN(C)CCOc1cccc(O)c1-c1cc(C2CCCNC2)c(C#N)c(N)n1` (stereo not shown) [Example 2-85], the IC50 was 1 to 10 µM. For the compound `N#Cc1c(C2CCCNC2)cc(-c2c(O)cccc2OCCN2CCCCCC2)nc1N` (stereo not shown) [Example 2-86], the IC50 lay in the range of 1 to 10 µM. On to `N#Cc1c(C2CCCNC2)cc(-c2c(O)cccc2OCCN2CCCC2)nc1N` (stereo not shown) [Example 2-87], for which the IC50 lay in the range of 1 to 10 µM. For the compound `CCOC(=O)N1Cc2c(C3CCCNC3)cc(-c3c(O)cccc3OCC3CC3)nc2NC1=O` (stereo not shown) [Example 24-2, ethyl 7-[2-(cyclopropylmethoxy)-6-hydroxyphenyl]-2-oxo-5-(3-piperidinyl)-1,4-dihydropyrido[2,3-d]pyrimidine-3(2H)-carboxylate hydrochloride], the IC50 was under 1 µM. On to `O=C1Nc2nc(-c3c(O)cccc3OCC3CC3)cc(C3CCCNC3)c2CN1C(=O)NC1CCCCC1` (stereo not shown) [Example 24-3, N-cyclohexyl-7-[2-(cyclopropylmethoxy)-6-hydroxyphenyl]-2-oxo-5-(3-piperidinyl)-1,4-dihydropyrido[2,3-d]pyrimidine-3(2H)-carboxamide hydrochloride], for which the IC50 was under 1 µM. Regarding `CS(=O)(=O)N1Cc2c(C3CCCNC3)cc(-c3c(O)cccc3OCC3CC3)nc2NC1=O` (stereo not shown) [Example 24-4, 7-[2-(cyclopropylmethoxy)-6-hydroxyphenyl]-3-(methylsulfonyl)-5-(3-piperidinyl)-3,4-dihydropyrido[2,3-d]pyrimidin-2(1H)-one hydrochloride], the IC50 was under 1 µM. Turning to `CCOC(=O)c1cc2c(C3CCCNC3)cc(-c3ccccc3O)nc2[nH]c1=O` (stereo not shown) [Example 25-1, ethyl 7-(2-hydroxyphenyl)-2-oxo-5-(3-piperidinyl)-1,2-dihydro-1,8-naphthyridine-3-carboxylate hydrochloride], the IC50 fell in the range of 1 to 10 µM. `O=c1[nH]c2nc(-c3c(O)cccc3OCC3CC3)cc(C3CCCNC3)c2cc1F` (stereo not shown) [Example 25-2, 7-[2-(cyclopropylmethoxy)-6-hydroxyphenyl]-3-fluoro-5-(3-piperidinyl)-1,8-naphthyridin-2(1H)-one hydrochloride]: the IC50 was under 1 µM.

Regarding `NC(=O)c1cc2c(C3CCNCC3)cc(-c3c(O)cccc3OCC3CC3)nc2[nH]c1=O` [Example 25-3, 7-[2-(cyclopropylmethoxy)-6-hydroxyphenyl]-2-oxo-5-(4-piperidinyl)-1,2-dihydro-1,8-naphthyridine-3-carboxamide hydrochloride], the IC50 fell in the range of 1 to 10 µM. Take `O=c1ccc2c(C3CCCNC3)cc(-c3c(O)cccc3OCC3CC3)nc2[nH]1` (stereo not shown) [Example 25-4, 7-[2-(cyclopropylmethoxy)-6-hydroxyphenyl]-5-(3-piperidinyl)-1,8-naphthyridin-2(1H)-one hydrochloride]: the IC50 is under 1 µM. On the same count and under the same terms, as for `CCOC(=O)C1Cc2c(C3CCCNC3)cc(-c3ccccc3O)nc2NC1=O` (stereo not shown) [Example 26-1, ethyl 7-(2-hydroxyphenyl)-2-oxo-5-(3-piperidinyl)-1,2,3,4-tetrahydro-1,8-naphthyridine-3-carboxylate], the figure is under 1 µM; as for `NC(=O)C1Cc2c(C3CCNCC3)cc(-c3c(O)cccc3OCC3CC3)nc2NC1=O` (stereo not shown) [Example 26-2, 7-[2-(cyclopropylmethoxy)-6-hydroxyphenyl]-2-oxo-5-(4-piperidinyl)-1,2,3,4-tetrahydro-1,8-naphthyridine-3-carboxamide hydrochloride], under 1 µM; as for `O=C1CCc2c(C3CCCNC3)cc(-c3ccccc3O)nc2N1` (stereo not shown) [Example 27-1, 7-(2-hydroxyphenyl)-5-(3-piperidinyl)-3,4-dihydro-1,8-naphthyridin-2(1H)-one hydrochloride], under 1 µM.
